# In patent US20060130162A1, “Shrimp and the production thereof” (priority 2002, published 2006):
# “And” between values parts separate entries of the source, which are not always exact repeats. Identical values can stand only once.
# Test system: Juvenile shrimp
# Assay: Carotenoid content of shrimp fed lutein-enriched Designer Diet (HPLC carotenoid analysis)
# Format: in vivo
# Design: AsX (astaxanthin) content of shrimp / Lutein content of shrimp / Other carotenoid content of shrimp / Total carotenoid content of shrimp / AsX (astaxanthin) content of shrimp, Mean / Lutein content of shrimp, Mean / Other carotenoid content of shrimp, Mean / Total carotenoid content of shrimp, Mean: unit not given here
# Experimental: Juvenile shrimp (1-5 g) were cultured in 20 L tanks (5-10 shrimp per tank) at 23 degrees Celsius using standard shrimp diets (e.g., Rangen 35/2.5 shrimp diet). Test diets were prepared containing a 2:1 mixture of Rangen control feed with Lutein (Twin Labs) for a final lutein concentration in the diet of 8g/kg diet. Shrimp were fed at 0.3% body weight 2×/day for the duration of the experiment.
# Following 14 days of feeding, the shrimp were collected, frozen to −20° C. and lyophilized prior to chemical analysis.
# [1] = Mean of lutein group, lutein 8g/kg diet, 14 days of feeding
# [2] = individual sample, lutein 8g/kg diet, 14 days of feeding
compound,measurement,setting,value
CC1=C[C@H](O)CC(C)(C)[C@H]1/C=C/C(C)=C/C=C/C(C)=C/C=C/C=C(C)/C=C/C=C(C)/C=C/C1=C(C)C[C@@H](O)CC1(C)C [Lutein],"A/L (astaxanthin / lutein), Mean",[1],2.23.
same,"A/T (astaxanthin / total carotenoids), Mean",[1],53%
same,"AsX (astaxanthin) content of shrimp, Mean",[1],6.24
same,"L + O/T (lutein + other / total carotenoids), Mean",[1],47%
same,"L/T (lutein / total carotenoids), Mean",[1],33%
same,"Lutein content of shrimp, Mean",[1],4.64
same,"Other carotenoid content of shrimp, Mean",[1],1.62
same,"Total carotenoid content of shrimp, Mean",[1],12.49
same,Effect of lutein enrichment on shrimp appearance (FIG. 1),"before cooking and after cooking, compared with non-enriched shrimp","larger, more colorful"
same,A/L (astaxanthin / lutein),[2],3.79 and 1.80 and 0.49 and 1.09 and 3.99
same,A/T (astaxanthin / total carotenoids),[2],68% and 54% and 30% and 45% and 70%
same,AsX (astaxanthin) content of shrimp,[2],6.45 and 4.91 and 4.63 and 8.37 and 6.82
same,L + O/T (lutein + other / total carotenoids),[2],32% and 46% and 70% and 55% and 30%
same,L/T (lutein / total carotenoids),[2],18% (2×) and 30% and 61% and 41%
same,Lutein content of shrimp,[2],1.70 and 2.73 and 9.39 and 7.65 and 1.71
same,Other carotenoid content of shrimp,[2],1.38 and 1.40 and 1.47 and 2.70 and 1.15
same,Total carotenoid content of shrimp,[2],9.53 and 9.04 and 15.49 and 18.72 and 9.68
